Laboratory results taken from PubChem BioAssay (NCI).
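Interpolation was linear, between the two tested concentrations surrounding the appropriate level; five concentrations were tested over 48 hours in 96-well plates. Definition used: TGI = concentration required for complete inhibition of growth.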

Experiments:
Assay in all cases: inhibition of tumour cell growth, NCI panel, 48 h
SF-268 CNS = test system: SF-268 CNS
HCC-2998 colon = test system: HCC-2998 colon
OVCAR-8 ovarian = test system: OVCAR-8 ovarian
BT-549 breast = test system: BT-549 breast
MALME-3M melanoma = test system: MALME-3M melanoma
T-47D breast = test system: T-47D breast
NCI/ADR-RES ovarian = test system: NCI/ADR-RES ovarian
EKVX NSCLC = test system: EKVX NSCLC
SK-MEL-5 melanoma = test system: SK-MEL-5 melanoma
HOP-62 NSCLC = test system: HOP-62 NSCLC
NCI-H460 lung = test system: NCI-H460 lung
SK-MEL-28 melanoma = test system: SK-MEL-28 melanoma
HT29 colon = test system: HT29 colon
A498 renal = test system: A498 renal
SF-295 CNS = test system: SF-295 CNS
K-562 leukemia = test system: K-562 leukemia

SMILES	TGI (SF-268 CNS) [µM]	TGI (HCC-2998 colon) [µM]	TGI (OVCAR-8 ovarian) [µM]	TGI (BT-549 breast) [µM]	TGI (MALME-3M melanoma) [µM]	TGI (T-47D breast) [µM]	TGI (NCI/ADR-RES ovarian) [µM]	TGI (EKVX NSCLC) [µM]	TGI (SK-MEL-5 melanoma) [µM]	TGI (HOP-62 NSCLC) [µM]	TGI (NCI-H460 lung) [µM]	TGI (SK-MEL-28 melanoma) [µM]	TGI (HT29 colon) [µM]	TGI (A498 renal) [µM]	TGI (SF-295 CNS) [µM]	TGI (K-562 leukemia) [µM]
COC(=O)c1c(O)ccc2c1c1c(n2C)C(=O)c2ccccc2C1=O	43.6	49.3	> 100	45.8	> 100	13.1	> 100	> 100	> 100	28	> 100	> 100	> 100	> 100	65.6	> 100
CCCCCc1c(CCCC)c(=O)[nH]c2cc(CNCC(OC)OC)ccc12	32.6	7.62	32	28	7.83	31.8	26.9	31.3	21	33.5	23.9	12.2	12.4	28.9	32.2	5.63
COc1cc2c(cc1OCCCC(=O)Nc1cc(C(=O)Nc3cc(C(=O)NCCCN(C)C)n(C)n3)n(C)n1)N=CC1CCCN1C2=O (stereo not drawn)	41.2	37.9	53.2	26.5	31.5	53	57.3	> 100	30.1	68.7	> 100	30.4	30.8	59.2	> 100	27.7
O=[N+]([O-])C(=C(NCc1ccccc1)NCc1ccccc1)C(Cl)=C(Cl)Cl	69.4	> 100	> 100	> 100	55.7	92.9	> 100	> 100	36	> 100	> 100	> 100	> 100	> 100	60.8	54.2
CC(Nc1cc(Cl)cc(Cl)c1)c1ccncc1 (stereo not drawn)	51.9	37.1	43	52.7	54.9	> 100	63.7	59.9	28.7	33.5	73.3	97.8	88.8	88.8	43.4	> 100
COc1ccc2c(c1)CC[C@@H]1[C@@H]2CC[C@]2(C)/C(=N/OCCN3CCCCC3)CC[C@@H]12	24.7	8.26	23.1	28.7	4.89	19.2	24.2	21.5	6.27	21	5.68	5	3.67	23	12.6	9.62
CC(=O)Oc1ccc2c(c1)CC[C@@H]1C2[C@@H](O[N+](=O)[O-])C[C@@]2(C)C1CC[C@@H]2O (stereo partly drawn)	> 83	46.2	> 86.7	> 100	> 100	> 100	97.3	93.6	> 100	> 60.5	> 89.1	> 100	> 76.6	72.5	> 100	72.1
COC(=O)C(Cc1ccccc1)NC(=O)CNC(=O)CSc1nnc(COc2ccc(Cl)cc2)n1-c1ccccc1 (stereo not drawn)	33	24.7	27.4	35.6	34.5	51.4	42	39.9	29.8	35.3	32.2	34.6	35.3	29.4	31.7	> 75.6
COc1cccc(C2c3cc4c(cc3OC(N3CCOCC3)C2C)OCO4)c1O (stereo not drawn)	> 79.1	21.9	60.1	76.1	> 78.6	36.4	19.1	98.9	18.4	26	20.4	> 61.8	28.8	20.8	42.9	38.1
NC1CCC(c2cc3ccccc3s2)(N2CCCCC2)CC1 (stereo not drawn)	15.8	2.21	3.67	3.08	7.79	5.51	2.42	11.9	4.16	4.5	3.06	3.11	2.45	22.9	12.7	3.44
CCN(CC)CCNc1ccc(N=Nc2ccc(S(N)(=O)=O)cc2)c2ccccc12	37.8	29.1	21.3	34	36	8.27	> 100	41.2	20.3	> 100	> 100	28.1	34.9	29.7	15.1	> 100
COc1ccc(CN=CN/C(C#N)=C(\N)C#N)cc1OC	> 100	> 100	> 100	> 100	> 100	> 100	> 100	> 100	> 100	> 100	> 100	> 100	> 100	> 100	> 100	> 100
CN(C)Cc1cc(N=Nc2ccc(Cl)c(Cl)c2)ccc1O	18.7	24.4	25.5	27	29.6	23.2	23.5	25.6	25.2	15.3	19.8	26.5	20.4	23.9	31.9	14.1
Cc1nn(-c2ccccc2)c(C)c1/C=N/NC(=O)c1sc(=S)n(-c2ccccc2)c1N	> 100	13.5	> 100	> 100	> 100	> 100	> 100	8.17	> 100	> 100	16.3	48	19.7	59.3	6.55	> 100
COC(=O)/C=C1/OC(c2ccccc2)=C(Cl)C1=O	48.1	38.9	48.7	40.3	36	> 56.6	61.9	44.5	28.7	> 58	> 77.6	42.5	48.4	68.2	> 65.1	25.9
COc1cc(C2c3cc4c(cc3OC(N3CCOCC3)C2C)OCO4)cc(OC)c1O (stereo not drawn)	> 100	> 57.8	> 56.7	60.6	16.2	> 100	18.4	> 94	17.5	35.5	> 100	> 48.6	27.7	41.2	15.8	> 75.5
COc1cc2[nH]c(-c3ccccc3)cc(=O)c2cc1OC	> 100	> 87.4	> 89.4	> 100	> 100	> 100	> 100	> 100	54.4	> 100	> 66.6	> 100	56.7	> 100	> 100	> 100
CC1=Nn2c(nc3sc4c(c3c2=O)CCCC4)SC1	> 100	> 100	> 100	> 100	> 100	> 100	> 100	> 100	> 100	> 100	> 100	> 100	> 100	> 100	> 100	> 100
